pIC50: −log10 of the molar value. Active and inactive are the calls of the source. The calls are words filed in the database; no cut-off is given here.
Columns and labels:
[1] = molecular target: Gamma-secretase; assay: Inhibition of human gamma secretase assessed as effect on C100Flag substrate cleavage; assay type: protein-complex assay
[2] = molecular target: Presenilin-1 (Homo sapiens) (UniProt P49768); assay: Binding affinity to presenilin-1 in UV irradiated human HeLa cells assessed as enzyme photolabeling at 10 uM in presence of 2 uM L-685,458 by SDS-PAGE based photocross linking study; assay type: cell-based
[3] = molecular target: Presenilin-1 (Homo sapiens) (UniProt P49768); assay: Binding affinity to presenilin-1 in UV irradiated human HeLa cells assessed as enzyme photolabeling at 10 uM by SDS-PAGE based photocross linking study; assay type: cell-based

| SMILES | pIC50 [1] | Activity [2] | Activity [3] |
| --- | --- | --- | --- |
| COC(=O)[C@H](Cc1ccccc1)NC(=O)[C@H](CC(C)C)NC(=O)[C@H](Cc1ccccc1)C[C@@H](O)[C@H](Cc1ccc(C(=O)c2ccccc2)cc1)NC(=O)OC(C)(C)C | 9.15 | – | – |
| CC(C)C[C@H](NC(=O)[C@H](Cc1ccccc1)C[C@@H](O)[C@H](Cc1ccc(C(=O)c2ccccc2)cc1)NC(=O)OC(C)(C)C)C(=O)N[C@@H](Cc1ccccc1)C(=O)NCCCCCNC(=O)CCCCC1SC[C@H]2NC(=O)N[C@@H]12 (some centres undefined) | 9.22 | inactive | Active |
